Data as given in US7078550B2, “Silanyl phenols and naphthols” (Ciba Specialty Chemicals Corporation, priority 2001, dated 2006).
In brackets after ≈: the same amount, converted by molar mass.

Tests used:
Assay in all cases: Minimum Inhibitory Concentration (MIC) in the agar incorporation test
Type in all cases: cell-based
[1] = tested on: Aspergillus niger ATCC 6275; conditions: ATCC6275, 72 h, Sabouraud 4% glucose agar, 3 days at 28° C.
Protocol: (§1) Determination of the Minimum Inhibitory Concentration (MIC) in the Agar Incorporation Test (MIC Test)
(§2) 0.3 ml of each dilution stage is mixed with 15 ml of still-liquid nutrient medium. After the nutrient medium has solidified, 10 μl of each of the following organism dilutions of the test strains in 0.85% NaCl solution are spotted onto the agar medium:
(§3) The plates are incubated for 24 hours at 37° C. (A. niger 3 days at 28° C.) and then the highest dilution (lowest concentration) of the test substance at which growth is just no longer discernible (corresponds to the MIC) is determined.

[2] = tested on: Candida albicans ATCC 10231
Protocol: as §1, §2, §3

[3] = tested on: Escherichia coli NCTC 8196; conditions: NCTC8196, 24 hours at 37° C.
Protocol: as §1, §2, §3

[4] = tested on: Pseudomonas aeruginosa CIP A-22; conditions: CIPA22, 24 hours at 37° C.
Protocol: as §1, §2, §3

[5] = tested on: Staphylococcus aureus ATCC 9144; conditions: ATCC9144, 24 hours at 37° C.
Protocol: as §1, §2, §3

[6] = tested on: Corynebacterium xerosis ATCC 373; conditions: ATCC373, 24 h
Protocol: (§4) Determination of the Minimum Inhibitory Concentration (MIC) in the Agar Incorporation Test (MIC Test) [table] Test Principle: 0.3 ml of each dilution stage is mixed with 15 ml of still-liquid nutrient medium. After the nutrient medium has solidified, 10 μl of each of the following organism dilutions of the test strains in 0.85% NaCl solution are spotted onto the agar medium: The plates are incubated for 24 hours at 37° C. (A. niger 3 days at 28° C.) and then the highest dilution (lowest concentration) of the test substance at which growth is just no longer discernible (corresponds to the MIC) is determined.

[7] = tested on: Enterococcus hirae ATCC 10541; conditions: ATCC10541
Protocol: as §4

[8] = tested on: Staphylococcus hominis DSM 20328; conditions: DSM20328
Protocol: as §4

[9] = tested on: Escherichia coli ATCC 10536; conditions: ATCC10536
Protocol: as §4

[10] = ATCC10231, Candida albicans ATCC 10231, 24 hours at 37° C.
[11] = 24 h, Candida albicans ATCC 1023 (as printed in Table 3e)

SMILES | MIC [1] | MIC [2, 10] | MIC [3] | MIC [4] | MIC [5] | MIC [6] | MIC [7] | MIC [8] | MIC [2, 11] | MIC [9]
C[Si](C)(C)O[Si](C)(C)CCCc1cc(Cl)ccc1O [(115)] | 500 µg/mL (≈ 1580 µM) | 500 µg/mL (≈ 1580 µM) | 250 µg/mL (≈ 789 µM) | > 1000 µg/mL | 15 µg/mL (≈ 47.3 µM) | 8 µg/mL (≈ 25.2 µM) |  |  |  | 
Cc1ccc(O)c(CCC[Si](C)(C)O[Si](C)(C)C)c1 [(114)] | > 1000 µg/mL | > 1000 µg/mL | > 1000 µg/mL | > 1000 µg/mL | 8 µg/mL (≈ 27 µM) | 8 µg/mL (≈ 27 µM) |  |  |  | 
C[Si](C)(C)O[Si](C)(C)O[Si](C)(C)CCCc1cc(Cl)ccc1O [(112)] | > 1000 µg/mL | > 1000 µg/mL | > 1000 µg/mL | > 1000 µg/mL | 7 µg/mL (≈ 17.9 µM) | 2 µg/mL (≈ 5.11 µM) |  |  |  | 
COc1ccc(O)c(CCC[Si](C)(C)c2ccccc2)c1 [(111)] | > 1000 µg/mL | > 1000 µg/mL | > 1000 µg/mL | > 1000 µg/mL | 125 µg/mL (≈ 416 µM) | 8 µg/mL (≈ 26.6 µM) |  |  |  | 
CC(Cc1cc(Oc2ccccc2)ccc1O)C[Si](C)(C)c1ccccc1 (stereo not drawn) [(120)] | > 1000 µg/mL | > 1000 µg/mL | > 1000 µg/mL | > 1000 µg/mL | 8 µg/mL (≈ 21.2 µM) | 4 µg/mL (≈ 10.6 µM) |  |  |  | 
CC(Cc1cc(-c2ccccc2)ccc1O)C[Si](C)(O[Si](C)(C)C)O[Si](C)(C)C (stereo not drawn) [(103)] | > 560 µg/mL | > 560 µg/mL | > 560 µg/mL | > 560 µg/mL | > 560 µg/mL | 17.5 µg/mL (≈ 39.2 µM) | > 560 µg/mL | > 560 µg/mL |  | 
C[Si](C)(CCCc1ccccc1O)c1ccccc1 [(107)] | 15.6 µg/mL (≈ 57.7 µM) | 125 µg/mL (≈ 462 µM) | > 1000 µg/mL | > 1000 µg/mL | 1.9 µg/mL (≈ 7.03 µM) | 1.9 µg/mL (≈ 7.03 µM) | 3.9 µg/mL (≈ 14.4 µM) | 7.8 µg/mL (≈ 28.8 µM) |  | 
CC[Si](CC)(CC)CC(C)Cc1cc(Oc2ccccc2)ccc1O (stereo not drawn) [(118)] | > 1000 µg/mL | > 1000 µg/mL | > 1000 µg/mL | > 1000 µg/mL | 4 µg/mL (≈ 11.2 µM) |  |  |  |  | 
C[Si](C)(C)O[Si](C)(CCCc1ccc2ccccc2c1O)O[Si](C)(C)C [(116)] | > 1000 µg/mL |  |  |  | > 1000 µg/mL | 500 µg/mL (≈ 1230 µM) |  | > 1000 µg/mL | > 1000 µg/mL | > 1000 µg/mL
C[Si](C)(CCCc1cc(Cl)ccc1O)c1ccccc1 [(119)] | 62 µg/mL (≈ 203 µM) | 62 µg/mL (≈ 203 µM) | > 1000 µg/mL | > 1000 µg/mL | 4 µg/mL (≈ 13.1 µM) | 2 µg/mL (≈ 6.56 µM) |  |  |  | 
CC(Cc1cc(C(C)(C)C)ccc1O)C[Si](C)(O[Si](C)(C)C)O[Si](C)(C)C (stereo not drawn) [(108)] | > 1000 µg/mL | > 1000 µg/mL | > 1000 µg/mL | > 1000 µg/mL |  | 8 µg/mL (≈ 18.7 µM) |  |  |  | 
COc1cc(CCC[Si](C)(O[Si](C)(C)C)O[Si](C)(C)C)ccc1O [(102)] | > 1000 µg/mL | > 1000 µg/mL | > 1000 µg/mL | > 1000 µg/mL | > 1000 µg/mL |  |  |  |  | 
CC(Cc1ccc2ccccc2c1O)C[Si](C)(O[Si](C)(C)C)O[Si](C)(C)C (stereo not drawn) [(117)] | > 1000 µg/mL |  |  |  | > 1000 µg/mL | 1000 µg/mL (≈ 2380 µM) |  | > 1000 µg/mL | > 1000 µg/mL | > 1000 µg/mL
C[Si](C)(C)O[Si](C)(C)O[Si](C)(C)CCCc1ccccc1O [(105)] | > 1000 µg/mL | > 1000 µg/mL | > 1000 µg/mL | > 1000 µg/mL | 15.6 µg/mL (≈ 43.7 µM) | 3.9 µg/mL (≈ 10.9 µM) | 15.6 µg/mL (≈ 43.7 µM) | > 1000 µg/mL |  | 
CC(Cc1cc(Oc2ccccc2)ccc1O)C[Si](C)(O[Si](C)(C)C)O[Si](C)(C)C (stereo not drawn) [(101)] | > 1000 µg/mL | > 1000 µg/mL | > 1000 µg/mL | > 1000 µg/mL | 1000 µg/mL (≈ 2160 µM) |  |  |  |  | 
C[Si](C)(C)O[Si](C)(C)CCCc1ccccc1O [(106)] | 31.2 µg/mL (≈ 110 µM) | > 1000 µg/mL | > 1000 µg/mL | > 1000 µg/mL | 7.8 µg/mL (≈ 27.6 µM) | 7.8 µg/mL (≈ 27.6 µM) | 15.6 µg/mL (≈ 55.2 µM) | 31.2 µg/mL (≈ 110 µM) |  | 
CC(Cc1ccc2ccccc2c1O)C[Si](C)(C)c1ccccc1 (stereo not drawn) [(121)] | > 1000 µg/mL |  |  |  | > 1000 µg/mL | 250 µg/mL (≈ 747 µM) |  | > 1000 µg/mL | > 1000 µg/mL | > 1000 µg/mL
C[Si](C)(C)O[Si](C)(CCCc1ccccc1O)O[Si](C)(C)C [(104)] | > 1000 µg/mL | > 1000 µg/mL | > 1000 µg/mL | > 1000 µg/mL | 8 µg/mL (≈ 22.4 µM) |  |  |  |  | 
COc1ccc(O)c(CCC[Si](C)(O[Si](C)(C)C)O[Si](C)(C)C)c1 [(110)] | > 1000 µg/mL | > 1000 µg/mL | > 1000 µg/mL | > 1000 µg/mL | 250 µg/mL (≈ 646 µM) | 4 µg/mL (≈ 10.3 µM) |  |  |  | 
